Results on two compounds are retold here after patent US6894068B2, “Substituted benzimidazoles as non-nucleoside inhibitors of reverse transcriptase” (The United States of America as represented by the …, priority 1997, dated 2005).

The test system of one data set is HIV-1 isolate K101E. In words: Cytopathic cell killing assay, MT-4 cells, isolate K101E. The class given is cell-based. Particulars: Human immunodeficiency virus 1, MT4, read-out: EC50, isolate K101E, Table 8; MT-4 cells. An excerpt:
(§1) The various HIV isolates tested in the Figures are those corresponding to wild-type virus (NL4-3) and the other strains listed by their RT mutations. The three 4×AZT isolates included in the Figures represent AZT drug-resistant variants. For example, the 4×AZT/L100I isolate has five mutations: four mutations confer increased resistance to AZT, and the other mutation is located within the NNRTI binding pocket. TZB and nevir. (nevirapine) are two well-known NNRTIs, included in this experiment for comparison purposes.
(§2) In this Example, the antiviral and cellular toxicity of NNRTIs was investigated, using the cytopathic cell killing assay described by Yang (Yang et al., “Characteristics of a Group of Non-nucleoside Reverse Transcriptase Inhibitors with Structural Diversity and Potent Anti-Human Immunodeficiency Virus Activity,” Leukemia 9:S75-S85 [1995]). Briefly, in this method cells (e.g., the CEM-SS cell line, available from the NIAID AIDS Research and Reference Program [ARRRP]) were seeded at a density of 5×10^3 cells/well, into the wells of a 96-well microtiter plate. The cells were then infected with HIV virus (either mutant or WT), at a multiplicity of infection (MOI) previously determined to provide complete cell killing by 6 days of culture post-infection (e.g., MOI of 0.01-0.05). Each of the HIV isolates was pre-titered to induce equivalent levels of infection based on cell killing or virus production, prior to their use in these assays. A range of test compound concentrations was added to the wells in triplicate (e.g., serial half-log dilutions) to evaluate inhibition of HIV infection. Controls for each assay included drug controls (drug colorimetric control wells), drug cytotoxicity control wells (cells with drug), virus control wells (cells with virus), and cell viability controls (cells only). Positive control drugs (e.g. AZT and ddC) were also run in parallel.
(§3) After six days of incubation at 37° C., cell viability was determined spectrophotometrically at 450 nm for each well, using the metabolic reduction of XTT to a soluble colored formazan. (See, Gartner and Popovic, “Virus Isolation and Production, in Aldovini and Walker (eds.), Techniques in HIV Research, Stockton Press, NY, pp. […] [1991]; and Nara and Fischinger, “Quantitative Infectivity Assay for HIV-1 and HIV-2, ” Nature 332:469-470 [1988]).
(§4) The in vitro therapeutic index (TI50) was defined as the fold-difference between the EC50 and IC50. The results for the various compounds are included in FIGS. 8 and 19.
For orientation: Protection from cytopathic effect is a common read-out in antiviral testing.

Data set [1] deals with WT and HIV-1 variants containing amino acid substitutions in RT. Format: cell-based. Particulars: cytopathic cell killing assay, NNRTI-resistant HIV isolates.
From the text: In these Tables, antiviral data are reported as the quantity of drug in μM required to reduce cell killing or virus production by 50% (EC50). The various HIV isolates tested in the Figures are those corresponding to wild-type virus (NL4-3) and the other strains listed by their RT mutations. The three 4×AZT isolates included in the Figures represent AZT drug-resistant variants.
Briefly, in this method cells (e.g., the CEM-SS cell line, available from the NIAID AIDS Research and Reference Program [ARRRP]) were seeded at a density of 5×10^3 cells/well, into the wells of a 96-well microtiter plate. The cells were then infected with HIV virus (either mutant or WT), at a multiplicity of infection (MOI) previously determined to provide complete cell killing by 6 days of culture post-infection (e.g., MOI of 0.01-0.05). Each of the HIV isolates was pre-titered to induce equivalent levels of infection based on cell killing or virus production, prior to their use in these assays. A range of test compound concentrations was added to the wells in triplicate (e.g., serial half-log dilutions) to evaluate inhibition of HIV infection. Controls for each assay included drug controls (drug colorimetric control wells), drug cytotoxicity control wells (cells with drug), virus control wells (cells with virus), and cell viability controls (cells only). Positive control drugs (e.g. AZT and ddC) were also run in parallel.
as §3
Antiviral and toxicity data were reported as the quantity of drug required to inhibit 50% of virus-induced cell killing or virus production (EC50), and the quantity of drug required to […] (IC50). The in vitro therapeutic index (TI50) was defined as the fold-difference between the EC50 and IC50.

In a further data set the test system is HIV-1 isolate V179D. In words: Cytopathic cell killing assay, MT-4 cells, isolate V179D. The class given is cell-based. Particulars: Human immunodeficiency virus 1, MT4, read-out: EC50, isolate V179D, Table 8; MT-4 cells.
From the text: as §1, §2, §3, §4

The test system of another data set is HIV-1 isolate V108I. In words: Cytopathic cell killing assay, MT-4 cells, isolate V108I. As to conditions: Human immunodeficiency virus 1, MT4, read-out: EC50, isolate V1081, Table 8; MT-4 cells. The class given is cell-based.
From the text: as §1, §2, §3, §4

For a further data set, the system named is HIV-1 isolate L100I. In words: Cytopathic cell killing assay, MT-4 cells, isolate L100I. Format: cell-based.
From the text: as §1, §2, §3, §4

In the next data set the test system is HIV-1 isolate Y188C. In words: Cytopathic cell killing assay, MT-4 cells, isolate Y188C. Format: cell-based. Particulars: Human immunodeficiency virus 1, MT4, read-out: EC50, isolate Y188C, Table 8; MT-4 cells.
From the text: as §1, §2, §3, §4

Another data set deals with HIV-1 NL4-3 (WT). In words: Cytopathic cell killing assay, MT-4 cells, isolate NL4-3 (WT). The class given is cell-based.
From the text: as §1, §2, §3, §4

A further data set relates to HIV-1 WT virus (NL4-3). In words: microbe, parasite or virus in culture. Particulars: for EC50: Human immunodeficiency virus 1, NL43, CEM-SS, WT, read-out: EC50. The class given is cell-based. As to the method: Evaluation of these compounds for the inhibition of HIV-1 was determined as the fifty percent cell culture inhibitory concentration (CIC50) in CEMSS cell culture with WT virus (NL4-3).
as §2, §3, §4

For a further data set, the target named is HIV-1 WT RT (Human immunodeficiency virus type 1 group M subtype B, UniProt P03366). In words: biochemical. The class given is biochemical.
The subject of another data set is HIV-1 isolate Y181C. In words: Cytopathic cell killing assay, MT-4 cells, isolate Y181C. Format: cell-based.
From the text: as §1, §2, §3, §4

For another data set, the system named is HIV-1 isolate V106A. In words: Cytopathic cell killing assay, MT-4 cells, isolate V106A. The class given is cell-based. As to conditions: Human immunodeficiency virus 1, MT4, read-out: EC50, isolate V106A, Table 8; MT-4 cells.
From the text: as §1
In this Example, the antiviral and cellular toxicity of NNRTIs was investigated, using the cytopathic cell killing assay described by Yang (Yang et al., “Characteristics of a Group of Non-nucleoside Reverse Transcriptase Inhibitors with Structural Diversity and Potent Anti-Human Immunodeficiency Virus Activity,” Leukemia 9:S75-S85 [1995]). Briefly, in this method cells (e.g., the CEM-SS cell line, available from the NIAID AIDS Research and Reference Program [ARRRP]) were seeded at a density of 5×10^3 cells/well, into the wells of a 96-well microtiter plate. The cells were then infected with HIV virus (either mutant or WT), at a multiplicity of infection (MOI) previously determined to provide complete cell killing by 6 days of culture post-infection (e.g., MOI of 0.01-0.05). Each of the HIV isolates was pre-titered to induce equivalent levels of infection based on cell killing or virus production, prior to their use in these assays. A range of test compound concentrations was added to the wells in triplicate (e.g., serial half-log dilutions) to evaluate inhibition of HIV infection. […]
After six days of incubation at 37° C., cell viability was determined spectrophotometrically at 450 nm for each well, using the metabolic reduction of XTT to a soluble colored formazan. (See, Gartner and Popovic, “Virus Isolation and Production, in Aldovini and Walker (eds.), Techniques in HIV Research, Stockton Press, NY, pp. […] [1991]; and Nara and Fischinger, “Quantitative Infectivity Assay for HIV-1 and HIV-2, ” Nature 332:469-470 [1988]). […]

The test system of a further data set is HIV-1 isolate A98G. In words: Cytopathic cell killing assay, MT-4 cells, isolate A98G. Format: cell-based. Particulars: Human immunodeficiency virus 1, MT4, read-out: EC50, isolate A98G, Table 8; MT-4 cells.
From the text: as §1, §2, §3, §4

The test system of another data set is HIV-1 isolate L74V. In words: Cytopathic cell killing assay, MT-4 cells, isolate L74V. Format: cell-based. Particulars: Human immunodeficiency virus 1, MT4, read-out: EC50, isolate L74V, Table 8; MT-4 cells.
From the text: as §1, §2, §3, §4

The next data set has as its system HIV-1 isolate K103N. In words: Cytopathic cell killing assay, MT-4 cells, isolate K103N. The class given is cell-based.
From the text: as §1, §2, §3, §4

Setting [2] is: Table 7, drug concentration required to reduce cell killing or virus production by 50%.

Read-outs that look alike come from different tables or passages of the source.

Compound `CC(=O)Nc1cccc2c1nc(-c1c(F)cccc1F)n2Cc1c(F)cccc1F` [Compound 3600, 1-(2,6-difluorobenzyl)-2-(2,6-difluorophenyl)-4-acetamidobenzimidazole] had a melting point of 194 to 195 °C. In addition, in the data set with HIV-1 isolate K101E, the EC50 was > 20000 nM. In addition, the “cross-resistance profile, result in words” value (shortened to “cross-resistance profile”) in data set [1] is recorded as “inhibit HIV-1 better than TZB”. Also, in the data set with HIV-1 isolate V179D, the concentration for a half-maximal effect (EC50) came to 1700 nM. Moreover, in the data set with HIV-1 isolate V108I, the concentration for a half-maximal effect (EC50) is 5300 nM. Besides, the EC50 with HIV-1 isolate L100I (Human immunodeficiency virus 1, MT4, read-out: EC50, isolate L100I, Table 10, values in μM) stood at 3.25 µM. Moreover, the EC50 with HIV-1 isolate L100I (Human immunodeficiency virus 1, MT4, read-out: EC50, isolate L1001, Table 8, MT-4 cells) was 2.1 µM. In addition, the half-maximal effective concentration (EC50) with HIV-1 isolate Y188C was > 10000 nM. In addition, the half-maximal effective concentration (EC50) with HIV-1 NL4-3 (WT) (Human immunodeficiency virus 1, NL43, MT4, Table 8, MT-4 cells, read-out: EC50, isolate NL4-3) is 1.6 µM. Also, in the data set with HIV-1 NL4-3 (WT) (Human immunodeficiency virus 1, NL43, MT4, Table 10, values in μM, read-out: EC50, isolate NL4-3 (WT)), the EC50 is 1.97 µM. Also, in the data set with HIV-1 WT virus (NL4-3) (setting [2]), the EC50 was 1480 nM. Further, at HIV-1 WT RT, inhibition was half-maximal at 54700 nM (IC50). On HIV-1 WT RT (Table 7, 1 μM drug, WT HIV-1 RT, read-out: % inhibn (1 μM)), the inhibition at 1 µM was found to be 24%. In addition, in the data set on HIV-1 isolate Y181C (Human immunodeficiency virus 1, MT4, read-out: EC50, isolate Y181C, Table 8, MT-4 cells), the EC50 was > 10 µM. Also, the EC50 in the data set with HIV-1 isolate Y181C (Human immunodeficiency virus 1, MT4, read-out: EC50, isolate Y181C, Table 10, values in μM) is > 100 µM. Besides, in the data set on HIV-1 isolate V106A, the half-maximal effective concentration (EC50) was > 20000 nM. In addition, in the data set with HIV-1 isolate A98G, the concentration giving a half-maximal response (EC50) was 4300 nM. In addition, the concentration for a half-maximal effect (EC50) in the data set on HIV-1 isolate L74V worked out at 1200 nM. Moreover, the concentration giving a half-maximal response (EC50) in the data set with HIV-1 isolate K103N (Human immunodeficiency virus 1, MT4, read-out: EC50, isolate K103N, Table 8, MT-4 cells) was > 20 µM. Besides, in the data set on HIV-1 isolate K103N (Human immunodeficiency virus 1, MT4, read-out: EC50, isolate K103N, Table 10, values in μM), the half-maximal effective concentration (EC50) was > 100 µM.
As to `CC(=O)N(C)c1cccc2c1nc(-c1c(F)cccc1F)n2Cc1c(F)cccc1F` [Compound 5011, 1-(2,6-difluorobenzyl)-2-(2,6-difluorophenyl)-4-(N-methylacetamido)benzimidazole], the melting point fell in the range of 155 to 156 °C. Further, the “cross-resistance profile” value in [1] (listed as N-methyl acetamido) is on record as “inhibit HIV-1 better than TZB”. Moreover, in data set [1] (listed as N-methylacetamido), the “cross-resistance profile” value is “equal or better against the various variants than nevirapine”. In the data set with HIV-1 WT virus (NL4-3) (setting [2]), the EC50 was 20 nM. The EC50 with HIV-1 WT virus (NL4-3) (text b130, cytopathic cell killing assay) was found to be 20 nM. The “fold more potent than the 4-methyl or 4-amino compounds (EC50)” value in the data set on HIV-1 WT virus (NL4-3) (cytopathic cell killing assay) is on record as 20 fold. On HIV-1 WT RT, this compound had an IC50 of 320 nM. Moreover, the “% inhibn (1 μM)” value at HIV-1 WT RT (Table 7, 1 μM drug, WT HIV-1 RT) was determined as 77%. In addition, the EC50 in the data set on HIV-1 isolate A98G worked out at 100 nM.

The term EC50 denotes the concentration that produces a half-maximal response. Usually IC50 stands for the midpoint of a concentration-inhibition curve. A word on the melting point: it is the temperature of the solid-liquid transition.
